# Assay results: patent publication US11078216B2, “Bisaryl amides as NRF2 activators” (GLAXOSMITHKLINE INTELLECTUAL PROPERTY DEVELOPMENT LIMITED, priority 2016, dated 2021)
# Test system: NRF2 (NQO1 activity as marker for NRF2 activation), BEAS-2B cells
# Experiment: BEAS-2B NQO1 MTT Assay
# Assay type: cell-based
# Conditions: Homo sapiens, EC50 of NQO1 specific activity induction, 48 hours incubation, read-out: EC50
# In short: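 As a marker of NRF2 activation, NQO1 specific activity was read from the rate of absorbance change at 570 nm in MTT cocktail over 30 minutes. Lysates came from BEAS-2B cells treated for 48 hours at 37° C, and EC50 was derived by 3-parameter fitting.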
row,Compound,EC50 [nM]
1,"CC[C@@H]1CN(Cc2cc([C@@H](c3ccc4c(nnn4CC)c3C)C(C)(C)C(=O)N[C@H]3CCOC3)ccc2C)S(=O)(=O)c2cccnc2O1 [Example 113, (S)-3-(3-(((R)-4-Ethyl-1,1-dioxido-3,4-dihydro-2H-pyrido[2,3-b][1,4,5]oxathiazepin-2-yl)methyl)-4-methylphenyl)-3-(1-ethyl-4-methyl-1H-benzo[d][1,2,3]triazol-5-yl)-2,2-dimethyl-N-((S)-tetrahydrofuran-3-yl)propanamide]",10 to 100
2,"CC[C@@H]1CN(Cc2cc([C@@H](c3ccc4c(nnn4CC)c3C)C(C)(C)C(=O)N[C@@H]3CCOC3)ccc2C)S(=O)(=O)c2cccnc2O1 [Example 114, (S)-3-(3-(((R)-4-Ethyl-1,1-dioxido-3,4-dihydro-2H-pyrido[2,3-b][1,4,5]oxathiazepin-2-yl)methyl)-4-methylphenyl)-3-(1-ethyl-4-methyl-1H-benzo[d][1,2,3]triazol-5-yl)-2,2-dimethyl-N-((R)-tetrahydrofuran-3-yl)propanamide]",10 to 100
3,"CC[C@@H]1CN(Cc2cc([C@@H](c3ccc4c(nnn4CC)c3C)C(C)(C)C(=O)Nc3cnc(SC)nc3)ccc2C)S(=O)(=O)c2cccnc2O1 [Example 115, (S)-3-(3-(((R)-4-Ethyl-1,1-dioxido-3,4-dihydro-2H-pyrido[2,3-b][1,4,5]oxathiazepin-2-yl)methyl)-4-methylphenyl)-3-(1-ethyl-4-methyl-1H-benzo[d][1,2,3]triazol-5-yl)-2,2-dimethyl-N-(2-(methylthio)pyrimidin-5-yl)propanamide]",1 to 10
4,"CC[C@@H]1CN(Cc2cc([C@H](c3ccc4c(nnn4CC)c3C)C(C)(C)C(=O)Nc3cccnc3)ccc2C)S(=O)(=O)c2cccnc2O1 [Example 116, (R)-3-(3-(((R)-4-Ethyl-1,1-dioxido-3,4-dihydro-2H-pyrido[2,3-b][1,4,5]oxathiazepin-2-yl)methyl)-4-methylphenyl)-3-(1-ethyl-4-methyl-1H-benzo[d][1,2,3]triazol-5-yl)-2,2-dimethyl-N-(pyridin-3-yl)propanamide]",10 to 100
5,"CC[C@@H]1CN(Cc2cc([C@@H](c3ccc4c(nnn4CC)c3C)C(C)(C)C(=O)Nc3cncnc3)ccc2C)S(=O)(=O)c2cccnc2O1 [Example 117, (S)-3-(3-(((R)-4-Ethyl-1,1-dioxido-3,4-dihydro-2H-pyrido[2,3-b][1,4,5]oxathiazepin-2-yl)methyl)-4-methylphenyl)-3-(1-ethyl-4-methyl-1H-benzo[d][1,2,3]triazol-5-yl)-2,2-dimethyl-N-(pyrimidin-5-yl)propanamide]",1 to 10
6,"CC[C@@H]1CN(Cc2cc([C@H](CC(=O)Nc3cnccn3)c3ccc4c(nnn4CC)c3C)ccc2C)S(=O)(=O)c2cccnc2O1 [Example 118, (S)-3-(3-(((R)-4-Ethyl-1,1-dioxido-3,4-dihydro-2H-pyrido[2,3-b][1,4,5]oxathiazepin-2-yl)methyl)-4-methylphenyl)-3-(1-ethyl-4-methyl-1H-benzo[d][1,2,3]triazol-5-yl)-N-(pyrazin-2-yl)propanamide]",10 to 100
7,"CC[C@H]1Cc2ncccc2S(=O)(=O)N(Cc2cc([C@@H](c3ccc4c(nnn4CC)c3C)C(C)(C)C(=O)Nc3cccnc3)ccc2C)C1 [Example 119, (S)-3-(3-(((S)-4-Ethyl-1,1-dioxido-4,5-dihydropyrido[2,3-f][1,2]thiazepin-2(3H)-yl)methyl)-4-methylphenyl)-3-(1-ethyl-4-methyl-1H-benzo[d][1,2,3]triazol-5-yl)-2,2-dimethyl-N-(pyridin-3-yl)propanamide]",1 to 10
8,"CC[C@@H]1CN(Cc2cc([C@@H](c3ccc4c(nnn4CC)c3C)C(C)(C)C(=O)Nc3cccnc3)ccc2C)S(=O)(=O)c2cccnc2O1 [Example 120, (S)-3-(3-(((R)-4-Ethyl-1,1-dioxido-3,4-dihydro-2H-pyrido[2,3-b][1,4,5]oxathiazepin-2-yl)methyl)-4-methylphenyl)-3-(1-ethyl-4-methyl-1H-benzo[d][1,2,3]triazol-5-yl)-2,2-dimethyl-N-(pyridin-3-yl)propanamide]",1 to 10
9,"CC[C@@H]1CN(Cc2cc([C@H](CC(=O)Nc3ncccn3)c3ccc4c(nnn4CC)c3C)ccc2C)S(=O)(=O)c2cccnc2O1 [Example 121, (S)-3-(3-(((R)-4-Ethyl-1,1-dioxido-3,4-dihydro-2H-pyrido[2,3-b][1,4,5]oxathiazepin-2-yl)methyl)-4-methylphenyl)-3-(1-ethyl-4-methyl-1H-benzo[d][1,2,3]triazol-5-yl)-N-(pyrimidin-2-yl)propanamide]",100 to 1000
10,"CC[C@@H]1CN(Cc2cc([C@H](CC(=O)Nc3cccnn3)c3ccc4c(nnn4CC)c3C)ccc2C)S(=O)(=O)c2cccnc2O1 [Example 122, (S)-3-(3-(((R)-4-Ethyl-1,1-dioxido-3,4-dihydro-2H-pyrido[2,3-b][1,4,5]oxathiazepin-2-yl)methyl)-4-methylphenyl)-3-(1-ethyl-4-methyl-1H-benzo[d][1,2,3]triazol-5-yl)-N-(pyridazin-3-yl)propanamide]",100 to 1000
11,"CC[C@@H]1CN(Cc2cc([C@H](CC(=O)Nc3cnc(OC)nc3)c3ccc4c(nnn4CC)c3C)ccc2C)S(=O)(=O)c2cccnc2O1 [Example 123, (S)-3-(3-(((R)-4-Ethyl-1,1-dioxido-3,4-dihydro-2H-pyrido[2,3-b][1,4,5]oxathiazepin-2-yl)methyl)-4-methylphenyl)-3-(1-ethyl-4-methyl-1H-benzo[d][1,2,3]triazol-5-yl)-N-(2-methoxypyrimidin-5-yl)propanamide]",10 to 100
12,"CCOCCOc1ncc(NC(=O)C(C)(C)[C@@H](c2ccc(C)c(CN3C[C@@H](CC)Oc4ncccc4S3(=O)=O)c2)c2ccc3c(nnn3CC)c2C)cn1 [Example 124, (S)—N-(2-(2-Ethoxyethoxy)pyrimidin-5-yl)-3-(3-(((R)-4-ethyl-1,1-dioxido-3,4-dihydro-2H-pyrido[2,3-b][1,4,5]oxathiazepin-2-yl)methyl)-4-methylphenyl)-3-(1-ethyl-4-methyl-1H-benzo[d][1,2,3]triazol-5-yl)-2,2-dimethylpropanamide]",1 to 10
13,"CC[C@@H]1CN(Cc2cc([C@H](CC(=O)Nc3cnc(N4CCCCC4)nc3)c3ccc4c(nnn4CC)c3C)ccc2C)S(=O)(=O)c2cccnc2O1 [Example 125, (S)-3-(3-(((R)-4-Ethyl-1,1-dioxido-3,4-dihydro-2H-pyrido[2,3-b][1,4,5]oxathiazepin-2-yl)methyl)-4-methylphenyl)-3-(1-ethyl-4-methyl-1H-benzo[d][1,2,3]triazol-5-yl)-N-(2-(piperidin-1-yl)pyrimidin-5-yl)propanamide]",10 to 100
14,"CC[C@@H]1CN(Cc2cc([C@H](CC(=O)Nc3cnc(NC)nc3)c3ccc4c(nnn4CC)c3C)ccc2C)S(=O)(=O)c2cccnc2O1 [Example 126, (S)-3-(3-(((R)-4-Ethyl-1,1-dioxido-3,4-dihydro-2H-pyrido[2,3-b][1,4,5]oxathiazepin-2-yl)methyl)-4-methylphenyl)-3-(1-ethyl-4-methyl-1H-benzo[d][1,2,3]triazol-5-yl)-N-(2-(methylamino)pyrimidin-5-yl)propanamide]",100 to 1000
15,"CC[C@@H]1CN(Cc2cc([C@H](CC(=O)Nc3cnc(NC(CO)CO)nc3)c3ccc4c(nnn4CC)c3C)ccc2C)S(=O)(=O)c2cccnc2O1 [Example 127, (S)—N-(2-((1,3-Dihydroxypropan-2-yl)amino)pyrimidin-5-yl)-3-(3-(((R)-4-ethyl-1,1-dioxido-3,4-dihydro-2H-pyrido[2,3-b][1,4,5]oxathiazepin-2-yl)methyl)-4-methylphenyl)-3-(1-ethyl-4-methyl-1H-benzo[d][1,2,3]triazol-5-yl)propanamide]",1000 to 10000
16,"CC[C@@H]1CN(Cc2cc([C@@H](c3ccc4c(nnn4CC)c3C)C(C)(C)C(=O)Nc3cnc(NC(CO)CO)nc3)ccc2C)S(=O)(=O)c2cccnc2O1 [Example 128, (S)-N-(2-((1,3-Dihydroxypropan-2-yl)amino)pyrimidin-5-yl)-3-(3-(((R)-4-ethyl-1,1-dioxido-3,4-dihydro-2H-pyrido[2,3-b][1,4,5]oxathiazepin-2-yl)methyl)-4-methylphenyl)-3-(1-ethyl-4-methyl-1H-benzo[d][1,2,3]triazol-5-yl)-2,2-dimethylpropanamide]",100 to 1000
17,"CC[C@@H]1CN(Cc2cc([C@@H](c3ccc4c(nnn4CC)c3C)C(C)(C)C(=O)Nc3cnc(OCC(N)CO)nc3)ccc2C)S(=O)(=O)c2cccnc2O1 (stereo partly drawn) [Example 129, (3S)-N-(2-(2-Amino-3-hydroxypropoxy)pyri-midin-5-yl)-3-(3-(((R)-4-ethyl-1,1-dioxido-3,4-dihydro-2H-pyrido[2,3-b][1,4,5]oxathiazepin-2-yl)methyl)-4-methylphenyl)-3-(1-ethyl-4-methyl-1H-benzo[d][1,2,3]triazol-5-yl)-2,2-dimethylpropanamide]",100 to 1000
18,"CC[C@@H]1CN(Cc2cc([C@@H](c3ccc4c(nnn4CC)c3C)C(C)(C)C(=O)Nc3cnc(N(C)C)nc3)ccc2C)S(=O)(=O)c2cccnc2O1 [Example 130, (S)-N-(2-(Dimethylamino)pyri-midin-5-yl)-3-(3-(((R)-4-ethyl-1,1-dioxido-3,4-dihydro-2H-pyrido[2,3-b][1,4,5]oxathiazepin-2-yl)methyl)-4-methylphenyl)-3-(1-ethyl-4-methyl-1H-benzo[d][1,2,3]triazol-5-yl)-2,2-dimethylpropanamide]",1 to 10
19,"CC[C@@H]1CN(Cc2cc([C@@H](c3ccc4c(nnn4CC)c3C)C(C)(C)C(=O)Nc3cnc(S(C)(=O)=O)nc3)ccc2C)S(=O)(=O)c2cccnc2O1 [Example 131, (S)-3-(3-(((R)-4-Ethyl-1,1-dioxido-3,4-dihydro-2H-pyrido[2,3-b][1,4,5]oxathiazepin-2-yl)methyl)-4-methylphenyl)-3-(1-ethyl-4-methyl-1H-benzo[d][1,2,3]triazol-5-yl)-2,2-dimethyl-N-(2-(methylsulfonyl)pyrimidin-5-yl)propanamide]",10 to 100
